Experiments:
Conditions in all cases: incubation time: 72 h
BT-474 = test: drug sensitivity score (DSS), CellTiter-Glo (DSS (AUC-based score)); higher = stronger drug effect (viability inhibition or cytotoxicity); extreme values may be limits of the assay
Outline: (§1)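 The drug sensitivity score reflects the area under a fitted dose-response curve. To obtain it, breast cancer cells in 20 µl suspension were seeded into 384-well plates containing compound at 5 concentrations, 10-fold apart over a compound-specific 10,000-fold range, and incubated 72 h. CellTox Green fluorescence (485/520 nm) was read first and CellTiter-Glo luminescence second, after 10 min at room temperature. Each plate was normalised to 0.1 % DMSO and a positive kill control.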

BT-549 = test: as above
Outline: as §1

CAL-120 = test: as above
Outline: as §1

CAL-148 [1] = test: as above
Outline: as §1

CAL-51 [2] = test: as above
Outline: as §1

CAL-85-1 [3] = test: as above
Outline: as §1

DU-4475 [4] = test: as above
Outline: as §1

HCC1143 = test: as above
Outline: as §1

HCC1599 = test: as above
Outline: as §1

HCC1937 = test: as above
Outline: as §1

HDQ-P1 [5] = test: as above
Outline: as §1

Hs578T = test: as above
Outline: as §1

MCF-10A = test: as above
Outline: as §1

MDA-MB-231 = test: as above
Outline: as §1

MDA-MB-436 = test: as above
Outline: as §1

MDA-MB-453 [6] = test: as above
Outline: as §1

MDA-MB-468 = test: as above
Outline: as §1

MFM-223 = test: as above
Outline: as §1

SK-BR-3 = test: as above
Outline: as §1

CAL-148 [7] = test: normalised viability (% of control), CellTiter-Blue; higher = more viable cells (about 100 = DMSO control)
Method: (§2)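 DSRT, CellTiter-Blue viability, 72 h incubation. Signal is normalised to DMSO and benzethonium chloride controls. Value is the normalised response at dose 7.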

CAL-51 [8] = test: as above
Method: as §2

CAL-85-1 [9] = test: as above
Method: as §2

DU-4475 [10] = test: as above
Method: as §2

HDQ-P1 [11] = test: as above
Method: as §2

MDA-MB-453 [12] = test: as above
Method: as §2

Structure (SMILES)	drug sensitivity score (BT-474)	drug sensitivity score (BT-549)	drug sensitivity score (CAL-120)	drug sensitivity score (CAL-148 [1])	drug sensitivity score (CAL-51 [2])	drug sensitivity score (CAL-85-1 [3])	drug sensitivity score (DU-4475 [4])	drug sensitivity score (HCC1143)	drug sensitivity score (HCC1599)	drug sensitivity score (HCC1937)	drug sensitivity score (HDQ-P1 [5])	drug sensitivity score (Hs578T)	drug sensitivity score (MCF-10A)	drug sensitivity score (MDA-MB-231)	drug sensitivity score (MDA-MB-436)	drug sensitivity score (MDA-MB-453 [6])	drug sensitivity score (MDA-MB-468)	drug sensitivity score (MFM-223)	drug sensitivity score (SK-BR-3)	normalised viability (CAL-148 [7])	normalised viability (CAL-51 [8])	normalised viability (CAL-85-1 [9])	normalised viability (DU-4475 [10])	normalised viability (HDQ-P1 [11])	normalised viability (MDA-MB-453 [12])
O=C(O)c1ccc(-c2c[nH]c3ncc(-c4ccccc4)cc23)cc1C1CCCC1	0.507	0	0	0	0	0	0	0	0	0	0	0.128	0	0	0	0	0	0	2.12	–	–	–	–	–	–
Cc1ccc(C(=O)N(CCCN)[C@@H](c2oc3cc(Cl)ccc3c(=O)c2Cc2ccccc2)C(C)C)cc1 (100 nM)	–	–	–	–	–	–	–	–	–	–	–	–	–	–	–	–	–	–	–	18.9%	34.7%	30.1%	43%	72.5%	25.4%
NC(=O)Nc1cc(-c2cccc(F)c2)sc1C(=O)N[C@H]1CCCNC1 [AZD7762]	4.13	8.18	2.9	0	1.07	9.45	0	4.03	6.96	2.78	3.06	3.86	3.48	5.67	5.18	5.03	1.93	0	3.78	–	–	–	–	–	–
CO[C@H]1/C=C\C=C(/C)C(=O)NC2=CC(=O)C(NCCN(C)C)=C(C[C@@H](C)C[C@H](OC)[C@H](O)[C@@H](C)/C=C(\C)[C@@H]1OC(N)=O)C2=O [Alvespimycin] (100 nM)	–	–	–	–	–	–	–	–	–	–	–	–	–	–	–	–	–	–	–	15.6%	34.7%	33.1%	0.89%	38%	6.21%
CCC1(c2ccc(N)cc2)CCC(=O)NC1=O (configuration not stated) [Aminoglutethimide] (1000 nM)	–	–	–	–	–	–	–	–	–	–	–	–	–	–	–	–	–	–	–	113%	91%	95.2%	86.1%	79.3%	88.8%
Cn1c(CCCC(=O)O)nc2cc(N(CCCl)CCCl)ccc21 [Bendamustine] (1000 nM)	–	–	–	–	–	–	–	–	–	–	–	–	–	–	–	–	–	–	–	117%	109%	86.3%	112%	108%	102%
C=C(c1ccc(C(=O)O)cc1)c1cc2c(cc1C)C(C)(C)CCC2(C)C [Bexarotene] (1000 nM)	–	–	–	–	–	–	–	–	–	–	–	–	–	–	–	–	–	–	–	96.6%	80.6%	84.5%	116%	76%	86.5%
COc1cc2nccc(Oc3ccc(NC(=O)C4(C(=O)Nc5ccc(F)cc5)CC4)cc3)c2cc1OC [Cabozantinib] (100 nM)	–	–	–	–	–	–	–	–	–	–	–	–	–	–	–	–	–	–	–	107%	102%	79.6%	91.8%	85.5%	95.3%
N.N.[Cl][Pt][Cl] [Cisplatin] (1000 nM)	–	–	–	–	–	–	–	–	–	–	–	–	–	–	–	–	–	–	–	112%	104%	86.4%	110%	108%	103%
C[C@@H](Oc1cc(-c2cnn(C3CCNCC3)c2)cnc1N)c1c(Cl)ccc(F)c1Cl [Crizotinib] (1000 nM)	–	–	–	–	–	–	–	–	–	–	–	–	–	–	–	–	–	–	–	96.4%	108%	86.9%	108%	92.5%	91.9%
CN(C)/N=N/c1[nH]cnc1C(N)=O [Dacarbazine] (1000 nM)	–	–	–	–	–	–	–	–	–	–	–	–	–	–	–	–	–	–	–	106%	85.8%	90%	96.2%	110%	109%
COc1cc2ncnc(Nc3ccc(F)c(Cl)c3)c2cc1NC(=O)/C=C/CN1CCCCC1 [Dacomitinib]	0.458	1.11	0	0	0	8.62	0	0	0	0	8.45	0	16.9	0.139	0.907	5.43	3.31	0	14.6	–	–	–	–	–	–
Cc1ccc(-n2nc(C(C)(C)C)cc2NC(=O)Nc2ccc(OCCN3CCOCC3)c3ccccc23)cc1 [Doramapimod] (1000 nM)	–	–	–	–	–	–	–	–	–	–	–	–	–	–	–	–	–	–	–	105%	101%	73.5%	122%	66.7%	87.9%
C#Cc1cccc(Nc2ncnc3cc(OCCOC)c(OCCOC)cc23)c1 [Erlotinib] (1000 nM)	–	–	–	–	–	–	–	–	–	–	–	–	–	–	–	–	–	–	–	63%	92%	62.4%	94.8%	71.6%	91.4%
COc1cc([C@@H]2c3cc4c(cc3[C@@H](O[C@@H]3O[C@@H]5CO[C@@H](C)O[C@H]5[C@H](O)[C@H]3O)[C@H]3COC(=O)[C@H]23)OCO4)cc(OC)c1O [Etoposide] (1000 nM)	–	–	–	–	–	–	–	–	–	–	–	–	–	–	–	–	–	–	–	63.4%	35.4%	90.8%	12.3%	88.8%	93.4%
C[C@]12CC[C@@H]3c4ccc(O)cc4C[C@@H](CCCCCCCCC[S+]([O-])CCCC(F)(F)C(F)(F)F)[C@H]3[C@@H]1CC[C@@H]2O (some centres not stated) [Fulvestrant] (1000 nM)	–	–	–	–	–	–	–	–	–	–	–	–	–	–	–	–	–	–	–	92.4%	111%	84.9%	93.5%	84.3%	84.6%
O=P1(NCCCl)OCCCN1CCCl (configuration not stated) [Ifosfamide] (1000 nM)	–	–	–	–	–	–	–	–	–	–	–	–	–	–	–	–	–	–	–	101%	114%	81.2%	101%	103%	112%
N#CCNC(=O)c1ccc(-c2ccnc(Nc3ccc(N4CCOCC4)cc3)n2)cc1 [Momelotinib]	4.25	6.02	5.07	0	0	4.3	0	1.42	0	0	0	4.38	5.18	4.43	0	0	5.4	0	2.75	–	–	–	–	–	–
CC1(C)NC(=O)N(c2ccc([N+](=O)[O-])c(C(F)(F)F)c2)C1=O [Nilutamide] (1000 nM)	–	–	–	–	–	–	–	–	–	–	–	–	–	–	–	–	–	–	–	108%	99.7%	94.2%	102%	123%	108%
CCCCCCCCCCCCCCCCCCOP(=O)([O-])OC1CC[N+](C)(C)CC1 [Perifosine]	0	0	0	0	0	0	0	0	0	0.853	0	0	0.579	0	0.0848	0	0	0	0	–	–	–	–	–	–
Cc1ccc(C(=O)Nc2ccc(CN3CCN(C)CC3)c(C(F)(F)F)c2)cc1C#Cc1cnc2cccnn12 [Ponatinib] (100 nM)	–	–	–	–	–	–	–	–	–	–	–	–	–	–	–	–	–	–	–	94.8%	82.9%	89.3%	104%	92.8%	77.7%
Cn1c(Nc2ccc(C(F)(F)F)cc2)nc2cc(Oc3ccnc(-c4ncc(C(F)(F)F)[nH]4)c3)ccc21 [RAF265] (100 nM)	–	–	–	–	–	–	–	–	–	–	–	–	–	–	–	–	–	–	–	101%	86.1%	80.5%	104%	74.6%	83.7%
CS(=O)(=O)c1ccc(C2=C(c3ccccc3)C(=O)OC2)cc1 [Rofecoxib]	0	0	0	0	0.464	0	0	0	0	0	0	0	0	0	0	0	0	0	0	–	–	–	–	–	–
CNCc1ccc(-c2[nH]c3cc(F)cc4c3c2CCNC4=O)cc1 [Rucaparib] (1000 nM)	–	–	–	–	–	–	–	–	–	–	–	–	–	–	–	–	–	–	–	92.2%	103%	85.4%	82.3%	89.6%	102%
N[C@@H](CSC(c1ccccc1)(c1ccccc1)c1ccccc1)C(=O)O [S-trityl-L-cysteine] (4000 nM)	–	–	–	–	–	–	–	–	–	–	–	–	–	–	–	–	–	–	–	117%	85.1%	98.3%	103%	86.5%	94.3%
O=C(CCCCCCC(=O)Nc1ccc([C@H]2O[C@@H](CSc3nc(-c4ccccc4)c(-c4ccccc4)o3)C[C@@H](c3ccc(CO)cc3)O2)cc1)NO [Tubacin]	4.89	2.95	4.36	0.986	5.04	7.14	1.66	3.15	4.67	3.76	2.55	0	0	6.83	0	8.42	8.6	4.83	1.97	–	–	–	–	–	–
